The text below walks through data of patent US10777299B2, “Systems and methods for matching oncology signatures” (THE TRUSTEES OF COLUMBIA UNIVERSITY IN THE CITY OF NEW YORK, priority 2015, dated 2020).

The test system of data set [1] is H-STS xenograft. Put plainly: H-STS xenograft tumor growth, Champions Oncology (TGI, RECIST, TR). The data set is classed as in vivo, mice. The note with it: for % TGI: H-STS xenograft in NOD-SCIDS mice, treated 25 days; for effect on H-STS xenograft tumor growth (FIG. 4B): H-STS xenograft models; for % TR (tumor regression): H-STS xenograft; for RECIST PD/SD/PR/CR: number of mice per response class. How it is done:
All test agents were formulated according to manufacturer's specifications. Beginning Day 0, tumor dimensions were measured twice weekly by digital caliper and data, including individual and mean estimated tumor volumes (Mean TV±SEM), were recorded for each group. Tumor volume was calculated using the formula: […].
At study completion, percent tumor growth inhibition (% TGI) values were calculated and reported for each treatment group (T) versus control (C) using initial (i) and final (f) tumor measurements by the formula: % TGI=[1−(Tf−Ti)/(Cf−Ci)]×100. Individual mice reporting a tumor volume >120% of the Day 0 measurement were considered to have progressive disease (PD). Individual mice with neither sufficient shrinkage nor sufficient tumor volume increases are considered to have stable disease (SD). Individual mice reporting a tumor volume ≤70% of the Day 0 measurement for two consecutive measurements over a seven day period were considered partial responders (PR). If the PR persisted until study completion, percent tumor regression (% TR) was determined using the formula: % TR=(1−Tf/Ti)×100; a mean value was calculated for the entire treatment group. Individual mice lacking palpable tumors for two consecutive measurements over a seven day period were classified as complete responders (CR). All data collected in this study were managed electronically and stored on a redundant server system.
(§1) In vivo validation in NOD-SCIDS mice xenografts established by subcutaneous injection of H-STS cells was first conducted at Champions Oncology and then independently confirmed in the mouse hospital facility at Columbia University. Mice were enrolled in treatment arms when tumor size reached 250 mm^3 and were treated for 25 days. Tumor size was measured twice weekly by digital caliper, see methods.

Data set [2] deals with patient-0 metastasis checkpoint MRs. The data set can be described thus: OncoTreat: VIPER-inferred MR reversal after compound perturbation of H-STS cells, patient-0 MRs. The data set is classed as cell-based, human. The note with it: H-STS cell perturbation, FIG. 10A. How it is done: (§2) To assess the ability of these compounds to induce Tumor Checkpoint collapse (i.e., global inversion of patient-derived MR activity pattern), gene expression profiles were generated at 6 h and 24 h following perturbation of H-STS cells with two sub-lethal compound concentrations, the 72 h IC20 and 1/10th of that concentration in duplicate. The 24 h time point was considered more informative for long term response. These were produced by 30M SE read Illumina TruSeq profiling of RNA purified from treated cells as well as from cells treated with control media (DMSO). This ensured that the highest compound concentration can be tested that would not induce cell death processes and would thus faithfully recapitulate the compound mechanism of action (MoA) rather than the mechanisms and programs associated with cell demise. While in vivo endpoint phenotypes (e.g., tumor viability) are not effectively recapitulated in 2D cultures in vitro, compound MoA is reasonably well-recapitulated in both contexts. One aim can be to identify compounds capable of inverting MR activity signature in vitro in a relatively faithful model of the tumor regulatory context, to assess whether these compounds would have activity in vivo.
(§3) Drug signatures were analyzed with VIPER to assess the change in protein activity before and after the perturbation. Specifically, RX-GES were generated by differential expression of compound-treated vs. control-vehicle-treated cells at all time points and concentrations and analyzed with VIPER against the EP-NET interactome. This ranked all 5,602 regulatory proteins represented in the interactome from the one whose activity was most inhibited to the one whose activity was most increased following drug perturbation. An aREA analysis of patient samples that were well represented by the H-STS xenograft model was performed to assess enrichment of metastatic progression MRs in proteins whose activity was most inverted following drug perturbation. Since validation of these predictions was performed in H-STS mouse xenograft models, the analysis was limited to each NET-MET MRs that were recapitulated in the H-STS xenograft. […] Rather they allow optimal tuning of the results to available in vitro and in vivo models for optimal design of validation assays. Thus, the OncoTreat methodology uses the ability to prioritize small molecule compounds that optimally reverse a patient-specific MR activity signature.
FIG. 15 depicts the enrichment of the top 50 most activated (shown in red in the enrichment plots) and the top 50 most deactivated (shown in blue) proteins in patient 0 on the protein activity signature induced by each compound perturbation in the H-STS cell line. […] The colored bar indicates the tissue of origin for each of the evaluated tumors. […]

Data set [3] concerns H-STS xenograft checkpoint MRs. Put plainly: OncoTreat: VIPER-inferred MR reversal after compound perturbation of H-STS cells, xenograft MRs. The data set is classed as cell-based, human. The note with it: H-STS cell perturbation. As for the experimental part: as §2, §3
FIG. 15 depicts the enrichment of the top 50 most activated (shown in red in the enrichment plots) and the top 50 most deactivated (shown in blue) proteins in patient 0 on the protein activity signature induced by each compound perturbation in the H-STS cell line. […] The colored bar indicates the tissue of origin for each of the evaluated tumors.

Data set [4] relates to H-STS xenograft. The data set can be described thus: H-STS xenograft tumor growth, follow-up studies at Columbia. Type of data set: in vivo, mice. Conditions: mean of 8 animals. As for the experimental part: as §1
This is in line with the poor effect of Bardoxolone methyl, I-BET151 and Bortezomib on xenograft tumor growth, and the strong abrogation elicited by Entinostat (FIGS. 10B and 10C). In summary, while the effect of the Entinostat, I-BET151 and Bardoxolone methyl on the reversal of patient-0 checkpoint activity inferred from the in vitro H-STS perturbation assay was confirmed in the xenograft model, only Entinostat reverted the activity of the H-STS xenograft checkpoints and abrogated tumor growth (FIG. 10).
FIG. 10A depicts enrichment of patient-0 metastasis checkpoint MRs on the protein activity signatures induced by 6 selected compounds in the H-STS cells. FIGS. 10B and 10C depict growth curves for the H-STS xenograft while treated by vehicle control, and each of the 6 selected compounds. Curves show tumor volume for individual animals (FIG. 10B) or the mean±SEM of 8 animals (FIG. 10C). FIG. 10D depicts enrichment of patient-0 metastasis checkpoint on the protein activity signatures induced by 4 selected compounds in the H-STS xenograft. FIG. 10E depicts enrichment of H-STS xenograft checkpoint on the protein activity signatures induced by 4 selected compounds in the H-STS xenograft.

The subject of data set [5] is patient-0 checkpoint protein activity. Put plainly: Xenograft transcriptome analysis after drug administration, patient-0 checkpoint. Type of data set: in vivo, mice. Conditions: xenograft transcriptome 3 hours after 3rd drug administration.
For data set [6], the system named is rectal neuroendocrine tumor metastasis (NET-MET) tumor checkpoint. The data set can be described thus: Drug-induced VIPER-inferred protein activity signatures in H-STS cells versus NET-MET checkpoint. Type of data set: cell-based, human. The note with it: H-STS cell line. The source says: Drug MoA information was inferred using a NET liver metastasis-derived cell line (H-STS), which recapitulated the tumor checkpoint inferred from patient's samples (FIG. 6A).
Drug-induced VIPER-inferred protein activity signatures were obtained for a few drugs including entinostat. […] Drug MoA information was inferred using a NET liver metastasis-derived cell line (H-STS), which recapitulated the tumor checkpoint inferred from patient's samples, as shown in FIG. 6A.

For data set [7], the system named is H-STS xenograft checkpoint. The data set can be described thus: Xenograft transcriptome analysis after drug administration, H-STS xenograft checkpoint. The data set is classed as in vivo, mice. The note with it: xenograft transcriptome 3 hours after 3rd drug administration.

Molecules are shown by their SMILES.

On to `O=C1NC(=O)[C@@H](c2cn3c4c(cccc24)CCC3)[C@@H]1c1c[nH]c2ccccc12` [Tivantinib], for which the “% TGI” value in data set [1] (50 mg (50 mg/kg/dose)) is on record as −46%; in data set [1] (100 mg (text: 100 mg/kg/dose)) it was 28%; in data set [1] (100 mg (text: 100 mg/kg/dose), listed as ARQ197) it was 28%; in data set [1] (200 mg (text: 200 mg/kg/dose)), 43%; in data set [1] (200 mg (text: 200 mg/kg/dose), listed as ARQ197), 43%.
For `COc1cc2c(cc1-c1c(C)noc1C)ncc1[nH]c(=O)n([C@H](C)c3ccccn3)c12` [I-BET151], in data set [2], the “reversal of patient-0 MRs (in words)” value is on record as “significantly abrogating”. In data set [3], the “reversal of xenograft MRs (in words)” value was “significantly abrogating”. Also, the “xenograft tumor growth versus vehicle control (FIG. 10C)” value in data set [4] is given as “no significant difference”. Moreover, the “inhibition of patient-0 checkpoint protein activity in xenograft (FIG. 10D)” value (shortened to “inhibition … (FIG. 10D)”) in data set [5] is recorded as “strong inhibition”.
As to `Nc1ccccc1NC(=O)c1ccc(CNC(=O)OCc2cccnc2)cc1` [Entinostat], the “reversal of patient-0 MRs (in words)” value in data set [2] is listed as “significantly abrogating”; in data set [2] (listed as entinostat), “most significant reversal”. The entries for the “reversal of xenograft MRs (in words)” value in data set [3] and in data set [3] (listed as entinostat) were “significantly abrogating” and “most significant reversal”, respectively. Besides, the “reverting the NET-MET tumor checkpoint (FIG. 4A)” value in data set [6] is recorded as “most potent agent”. In addition, the “drug toxicity / animal deaths” value in data set [1] (100 mg (text: 100 mg/kg/dose), one week into the test) is listed as “toxic”. The “% TGI” value in data set [1] (25 mg (text: 25 mg/kg/dose)) is 112%; in data set [1] (25 mg (text: 25 mg/kg/dose), listed as MS-27-275), 112%; in data set [1] (50 mg (50 mg/kg/dose)), 110%; in data set [1] (50 mg (50 mg/kg/dose), listed as MS-27-275) it was 110%. In addition, the “effect on H-STS xenograft tumor growth (FIG. 4B)” value in data set [1] is “abrogated completely tumor growth”. In addition, the “% TR (tumor regression)” value in data set [1] (25 mg (text: 25 mg/kg/dose)) was 68%; in data set [1] (50 mg (50 mg/kg/dose)) it was 58%; in data set [1] (100 mg (text: 100 mg/kg/dose), single surviving animal), 49%. In addition, the “RECIST PD/SD/PR/CR” value in data set [1] (25 mg) is recorded as 0/0/3/0; in data set [1] (50 mg) it was 0/0/3/0; in data set [1] (100 mg) it was 0/0/1/0. Moreover, the “xenograft tumor growth versus vehicle control (FIG. 10C)” value in data set [4] is listed as “complete tumor growth abrogation”. In addition, the “inhibition … (FIG. 10D)” value in data set [5] is recorded as “strong inhibition”. Also, the “inhibition of the H-STS xenograft checkpoint in xenograft (FIG. 10E)” value in data set [7] is “significant inhibition”.
For the compound `CC(C)C[C@H](NC(=O)[C@H](Cc1ccccc1)NC(=O)c1cnccn1)B(O)O` [Bortezomib], the “xenograft tumor growth versus vehicle control (FIG. 10C)” value in data set [4] was “no significant difference”. The “inhibition … (FIG. 10D)” value in data set [5] is “no effect”.
On to `O=C(/C=C/c1cccc(S(=O)(=O)Nc2ccccc2)c1)NO` [Belinostat], for which the “reversal of patient-0 MRs (in words)” value in data set [2] was “no significant reversal”. In data set [3], the “reversal of xenograft MRs (in words)” value is “no significant reversal”. Also, the “reverting the NET-MET tumor checkpoint (FIG. 4A)” value in data set [6] is reported as “not affecting NET-MET checkpoint”. Also, the “% TGI” value in data set [1] (20 mg (text: 20 mg/kg/dose)) was 8%; in data set [1] (20 mg (text: 20 mg/kg/dose), listed as PDX101), 8%; in data set [1] (40 mg), −55%. For the same compound, the “effect on H-STS xenograft tumor growth (FIG. 4B)” value in data set [1] is on record as “did not abrogate tumor growth”. Also, the “RECIST PD/SD/PR/CR” value in data set [1] (20 mg) and in data set [1] (40 mg) was 3/0/0/0 in each case.
